In US7799799B2, “Indolizine derivatives, method for preparing same, and therapeutic compositions comprising same” (Sanofi-Aventis, priority 2005, dated 2010):
Where a name gives a salt, the structure may show the parent alone.

Assay: Solubility test at pH=4 from phosphate buffer pH 6 0.1M, by HPLC
Assay type: physicochemical
Conditions: for solubility at 5 min: aqueous buffer, thermodynamic from solid, phosphate buffer pH 6 0.1M, HPLC, first figure of the S/pH cell, the pH of the sample is the second; for pH (of the solubility sample): second figure of the S/pH cell, pH noted for the solubility sample
Experimental: The results for solubility, S, and pH are shown in the table below and are expressed in mg/ml.
A phosphate buffer, pH6, 0.1M, was prepared by adding 6.15 ml of 0.1M Na2HPO4 to 43.85 ml of 0.1M NaH2PO4. The solution was made up to 100 ml with filtered water using a Millipore system (trade mark).
Reference (Test Product in a Concentration in which the Latter is Soluble and which Acts as an Internal Reference)
About 0.2 mg (in a boat) was weighed out exactly and diluted in 1 ml of H2O/CH3CN: (50:50), i.e. 0.2 mg/ml, then the sample was subjected to ultrasound for 5 minutes.
About 4 mg (in a boat) was weighed out exactly and diluted in 400 μl (i.e. 10 mg/ml) of pH6 phosphate buffer (0.1M), then the sample was subjected to ultrasound for 5 minutes.
The pH was noted and if the pH was below 4, 1 μl of NaOH 1N was added (from 1 μl in 1 μl) until the pH was more than 4, then the pH was noted again. The solution (0.45 μm) was filtered then if necessary diluted with the phosphate buffer pH6. (If the product re-precipitated after diluting, the diluted sample was ignored, the mother solution was used and the solubility was determined at a wavelength other than λmax, to avoid saturating the signal.
The solubility of the compound was then determined by HPLC under the following conditions:
Instrument: Agilent 1100 chromatograph
Column temperature: 30° C. Flow rate: 0.8 ml/min Detection: λ=230 nm Injection volume: 5 μl

Compound | solubility at 5 min | pH (of the solubility sample)
CCCCc1cc2ccccn2c1C(=O)c1ccc(CCCN(CC)CC)cc1.Cl [compound 1, (2-butylindolizin-3-yl){4-[3-(diethylamino)propyl]phenyl}methanone hydrochloride] | 8810 µg/mL | 5.4
CCc1cc2ccccn2c1C(=O)c1ccc(CCCN(CC)CC)cc1.O=C(O)C(=O)O [compound 2, (2-ethylindolizin-3-yl){4-[3-(diethylamino)propyl]phenyl}methanone oxalate] | 7470 µg/mL | 4.07
CCCc1cc2ccccn2c1C(=O)c1ccc(CCCN(CC)CC)cc1.Cl [compound 3, {4-[3-(diethylamino)propyl]phenyl}(2-propylindolizin-3-yl)methanone hydrochloride] | > 10000 µg/mL | 5.82
CCCCc1cc2ccccn2c1C(=O)c1ccc(CCCCN(CC)CC)cc1.O=C(O)C(=O)O [compound 4, (2-butylindolizin-3-yl){4-[4-(diethylamino)butyl]phenyl}methanone oxalate] | > 10000 µg/mL | 4.10
CCc1cc2ccccn2c1C(=O)c1ccc(CCCCN(CC)CC)cc1.O=C(O)C(=O)O [compound 5, {4-[4-(diethylamino)butyl]phenyl}(2-ethylindolizin-3-yl)methanone oxalate] | > 10000 µg/mL | 3.96
CCCc1cc2ccccn2c1C(=O)c1ccc(CCCCN(CC)CC)cc1.Cl [compound 6, {4-[4-(diethylamino)butyl]phenyl}(2-propylindolizin-3-yl)methanone hydrochloride] | > 10000 µg/mL | 5.79
CCCCc1cc2ccccn2c1C(=O)c1ccc(CCCN(CCC)CCC)cc1 [compound 7, (2-butylindolizin-3-yl){4-[3-(dipropylamino)propyl]phenyl}methanone hydrochloride] | 8570 µg/mL | 5.65
CCCN(CCC)CCCc1ccc(C(=O)c2c(CC)cc3ccccn23)cc1 [compound 8, {4-[3-(dipropylamino)propyl]phenyl}(2-ethylindolizin-3-yl)methanone hydrochloride] | 8600 µg/mL | 5.82
CCCc1cc2ccccn2c1C(=O)c1ccc(CCCN(CCC)CCC)cc1 [compound 9, {4-[3-(dipropylamino)propyl]phenyl}(2-propylindolizin-3-yl)methanone hydrochloride] | 5290 µg/mL | 5.82
CCCCc1cc2ccccn2c1C(=O)c1ccc(CCCCN(CCC)CCC)cc1 [compound 10, (2-butylindolizin-3-yl){4-[4-(dipropylamino)butyl]phenyl}methanone hydrochloride] | > 10000 µg/mL | 5.81
CCCN(CCC)CCCCc1ccc(C(=O)c2c(CC)cc3ccccn23)cc1 [compound 11, {4-[4-(dipropylamino)butyl]phenyl}(2-ethylindolizin-3-yl)methanone hydrochloride] | > 10000 µg/mL | 5.82
CCCN(CCC)CCCc1ccc(C(=O)c2c(C)cc3ccccn23)cc1 [compound 13, {4-[3-(dipropylamino)propyl]phenyl}(2-methylindolizin-3-yl)methanone hydrochloride] | 1610 µg/mL | 7.2
CCCN(CCC)CCCCc1ccc(C(=O)c2c(C(C)C)cc3ccccn23)cc1 [compound 14, {4-[4-(dipropylamino)butyl]phenyl}(2-isopropylindolizin-3-yl)methanone oxalate] | 2330 µg/mL | 4.10
CCCN(CCC)CCCCc1ccc(C(=O)c2c(C)cc3ccccn23)cc1 [compound 15, {4-[4-(dipropylamino)butyl]phenyl}(2-methylindolizin-3-yl)methanone hydrochloride] | 1560 µg/mL | 6.33
CCCc1cc2ccccn2c1C(=O)c1ccc(CCCCN(CCC)CCC)cc1 [compound 16, {4-[4-(dipropylamino)butyl]phenyl}(2-propylindolizin-3-yl)methanone hydrochloride] | > 10000 µg/mL | 5.81
CCCCc1cc2ccccn2c1C(=O)c1ccc(CCCN(CCCC)CCCC)cc1 [compound 17, (2-butylindolizin-3-yl){4-[3-(dibutylamino)propyl]phenyl}methanone hydrochloride] | > 10000 µg/mL | 4.88

Compound | solubility at 5 min | pH (of the solubility sample)
CCCCN(CCCC)CCCc1ccc(C(=O)c2c(CC)cc3ccccn23)cc1 [compound 18, {4-[3-(dibutylamino)propyl]phenyl}(2-ethylindolizin-3-yl)methanone hydrochloride] | 6510 µg/mL | 5.42
CCCCN(CCCC)CCCc1ccc(C(=O)c2c(CCC)cc3ccccn23)cc1 [compound 19, {4-[3-(dibutylamino)propyl]phenyl}(2-propylindolizin-3-yl)methanone hydrochloride] | 4070 µg/mL | 5.27
CCCCc1cc2ccccn2c1C(=O)c1ccc(CCCCN(CCCC)CCCC)cc1 [compound 20, (2-butylindolizin-3-yl){4-[4-(dibutylamino)butyl]phenyl}methanone oxalate] | 2950 µg/mL | 4.02
CCCCN(CCCC)CCCCc1ccc(C(=O)c2c(CC)cc3ccccn23)cc1 [compound 21, {4-[4-(dibutylamino)butyl]phenyl}(2-ethylindolizin-3-yl)methanone oxalate] | 6900 µg/mL | 4.08
CCCCN(CCCC)CCCCc1ccc(C(=O)c2c(CCC)cc3ccccn23)cc1 [compound 22, {4-[4-(dibutylamino)butyl]phenyl}(2-propylindolizin-3-yl)methanone oxalate] | 4080 µg/mL | 4.58
CCCCc1cc2ccccn2c1C(=O)c1ccc(CCCN(CC)CCC)cc1 [compound 23, (2-butylindolizin-3-yl)(4-{3-[ethyl(propyl)amino]propyl}phenyl)methanone hydrochloride] | > 10000 µg/mL | 6.06
CCCN(CC)CCCc1ccc(C(=O)c2c(CC)cc3ccccn23)cc1 [compound 24, (2-ethylindolizin-3-yl)(4-{3-[ethyl(propyl)amino]propyl}phenyl)methanone oxalate] | 5920 µg/mL | 4.51
CCCN(CC)CCCc1ccc(C(=O)c2c(C(C)C)cc3ccccn23)cc1 [compound 25, (4-{3-[ethyl(propyl)amino]propyl}phenyl)(2-isopropylindolizin-3-yl)methanone hydrochloride] | 1710 µg/mL | 6.4
CCCN(CC)CCCc1ccc(C(=O)c2c(C)cc3ccccn23)cc1 [compound 26, (4-{3-[ethyl(propyl)amino]propyl}phenyl)(2-methylindolizin-3-yl)methanone hydrochloride] | 1490 µg/mL | 7.14
CCCN(CC)CCCCc1ccc(C(=O)c2c(C(C)C)cc3ccccn23)cc1 [compound 27, (4-{4-[ethyl(propyl)amino]butyl}phenyl)(2-isopropylindolizin-3-yl)methanone oxalate] | 2170 µg/mL | 6.5
CCCN(CC)CCCCc1ccc(C(=O)c2c(C)cc3ccccn23)cc1 [compound 28, (4-{4-[ethyl(propyl)amino]butyl}phenyl)(2-methylindolizin-3-yl)methanone hydrochloride] | 1540 µg/mL | 7.01
CCCc1cc2ccccn2c1C(=O)c1ccc(CCCN(CC)CCC)cc1 [compound 29, (4-{3-[ethyl(propyl)amino]propyl}phenyl)(2-propylindolizin-3-yl)methanone hydrochloride] | > 10000 µg/mL | 5.94
CCCCc1cc2ccccn2c1C(=O)c1ccc(CCCCN(CC)CCC)cc1 [compound 30, (2-butylindolizin-3-yl)(4-{4-[ethyl(propyl)amino]butyl}phenyl)methanone hydrochloride] | > 10000 µg/mL | 5.85
CCCN(CC)CCCCc1ccc(C(=O)c2c(CC)cc3ccccn23)cc1 [compound 31, (2-ethylindolizin-3-yl)(4-{4-[ethyl(propyl)amino]butyl}phenyl)methanone oxalate] | > 10000 µg/mL | 4.05
CCCc1cc2ccccn2c1C(=O)c1ccc(CCCCN(CC)CCC)cc1 [compound 32, (4-{4-[ethyl(propyl)amino]butyl}phenyl)(2-propylindolizin-3-yl)methanone hydrochloride] | 5640 µg/mL | 5.60
CCCCc1cc2ccccn2c1C(=O)c1ccc(CCCN(CCC)CCCC)cc1 [compound 33, (2-butylindolizin-3-yl)(4-{3-[butyl(propyl)amino]propyl}phenyl)methanone oxalate] | 3880 µg/mL | 5.36
